According to patent publication US20250333383A1, “N-OXIDE COMPOUNDS AND USE THEREOF” (SK BIOPHARMACEUTICALS CO., LTD., priority 2022, published 2025):

What was measured:
[1] = system: Rat Spinal Nerve Ligation Model; assay: Rat Spinal Nerve Ligation (SNL, Chung) model, mechanical allodynia by von Frey filaments; format: in vivo; conditions: 30 mg/kg, p.o., PWT two hours after the treatment
Protocol: Rat Spinal Nerve Ligation Model
Analgesic efficacy was examined through the Spinal Nerve Ligation (SNL) model, also known as the Chung model (Kim and Chung, 1992). SNL model is one of the most frequently used animal models for the assessment of neuropathic pain behavior.
Briefly, the lumbar 5 spinal nerve is ligated with silk suture distal to the dorsal root ganglion. After two weeks of recovery, mechanical allodynia in the affected paw of animals was evaluated using von Frey filaments. Using the Dixons Up-Down method (Chaplan et al, 1994), a pre-drug baseline was taken with allodynia defined as a paw withdrawal threshold (PWT)<4 g. Test compounds (at 30 mg/kg) or vehicle were then orally administered, and PWT was determined two hours after the treatment. Statistical mean values of PWT for vehicle control and drug treatment groups were calculated, and the percent of maximum possible effect (% MPE) value was determined according to the following formula; % MPE=[(post-drug PWT−pre-drug PWT)/(cutoff PWT−pre-drug PWT)]×100.

human Nav1.7 channels = molecular target: T1, human Nav1.7 channels (Homo sapiens, UniProt Q15858); assay: hNav1.7 channel assay, whole cell patch clamp, two-pulse protocol; format: cell-based; conditions: TP2 (inactivated phase inhibition), HEK293 cells stably expressing human Nav1.7, read-out: Inhibition activity: percent inhibition on the inactivated state of hNav1.7
T1 construct: host or cells: HEK293
Text: Whole cell patch clamp technique was used to investigate the inhibitory effects of the compound of Examples on human Nav1.7 channels, stably expressed in HEK293 cells. Human Nav1.7 recombinant cell line (CYL3011-precisION) was purchased from Eurofins.
Two-pulse protocol was used every 10 seconds to assess the state-dependent inhibition by Examples. From the holding potential of −90 mV, pre-pulse (200 ms at −120 mV) was followed by test pulse1 ([…]), then test pulse2 (TP2: 20 ms at 0 mV) was evoked after inter-pulse (20 ms at −100 mV).
Peak current amplitudes were measured for test pulses TP1 (resting phase inhibition) and TP2 (inactivated phase inhibition). The following solutions were used for screening assay: External (mM): 145 NaCl, 1 MgCl2, 1.8 CaCl2, 10 Hepes, 5 Glucose, pH 7.4, 300 mOsm; Internal (mM): 120 CsF, 10 NaCl, 10 EGTA, 10 HEPES, pH 7.2, 290 mOsm.
The inhibition on the inactivated state of hNav1.7 was calculated as: % inhibition (inactivation state)=(1−(ITP2, TA/ITP2, Control)×100%, where ITP2 (the inward peak Na+ currents), Control and ITP2, TA were elicited by the TP2 in control (vehicle only) and in the presence of a test article (TA) indicating Examples, respectively.

T1 sequence (Q15858 whole entry): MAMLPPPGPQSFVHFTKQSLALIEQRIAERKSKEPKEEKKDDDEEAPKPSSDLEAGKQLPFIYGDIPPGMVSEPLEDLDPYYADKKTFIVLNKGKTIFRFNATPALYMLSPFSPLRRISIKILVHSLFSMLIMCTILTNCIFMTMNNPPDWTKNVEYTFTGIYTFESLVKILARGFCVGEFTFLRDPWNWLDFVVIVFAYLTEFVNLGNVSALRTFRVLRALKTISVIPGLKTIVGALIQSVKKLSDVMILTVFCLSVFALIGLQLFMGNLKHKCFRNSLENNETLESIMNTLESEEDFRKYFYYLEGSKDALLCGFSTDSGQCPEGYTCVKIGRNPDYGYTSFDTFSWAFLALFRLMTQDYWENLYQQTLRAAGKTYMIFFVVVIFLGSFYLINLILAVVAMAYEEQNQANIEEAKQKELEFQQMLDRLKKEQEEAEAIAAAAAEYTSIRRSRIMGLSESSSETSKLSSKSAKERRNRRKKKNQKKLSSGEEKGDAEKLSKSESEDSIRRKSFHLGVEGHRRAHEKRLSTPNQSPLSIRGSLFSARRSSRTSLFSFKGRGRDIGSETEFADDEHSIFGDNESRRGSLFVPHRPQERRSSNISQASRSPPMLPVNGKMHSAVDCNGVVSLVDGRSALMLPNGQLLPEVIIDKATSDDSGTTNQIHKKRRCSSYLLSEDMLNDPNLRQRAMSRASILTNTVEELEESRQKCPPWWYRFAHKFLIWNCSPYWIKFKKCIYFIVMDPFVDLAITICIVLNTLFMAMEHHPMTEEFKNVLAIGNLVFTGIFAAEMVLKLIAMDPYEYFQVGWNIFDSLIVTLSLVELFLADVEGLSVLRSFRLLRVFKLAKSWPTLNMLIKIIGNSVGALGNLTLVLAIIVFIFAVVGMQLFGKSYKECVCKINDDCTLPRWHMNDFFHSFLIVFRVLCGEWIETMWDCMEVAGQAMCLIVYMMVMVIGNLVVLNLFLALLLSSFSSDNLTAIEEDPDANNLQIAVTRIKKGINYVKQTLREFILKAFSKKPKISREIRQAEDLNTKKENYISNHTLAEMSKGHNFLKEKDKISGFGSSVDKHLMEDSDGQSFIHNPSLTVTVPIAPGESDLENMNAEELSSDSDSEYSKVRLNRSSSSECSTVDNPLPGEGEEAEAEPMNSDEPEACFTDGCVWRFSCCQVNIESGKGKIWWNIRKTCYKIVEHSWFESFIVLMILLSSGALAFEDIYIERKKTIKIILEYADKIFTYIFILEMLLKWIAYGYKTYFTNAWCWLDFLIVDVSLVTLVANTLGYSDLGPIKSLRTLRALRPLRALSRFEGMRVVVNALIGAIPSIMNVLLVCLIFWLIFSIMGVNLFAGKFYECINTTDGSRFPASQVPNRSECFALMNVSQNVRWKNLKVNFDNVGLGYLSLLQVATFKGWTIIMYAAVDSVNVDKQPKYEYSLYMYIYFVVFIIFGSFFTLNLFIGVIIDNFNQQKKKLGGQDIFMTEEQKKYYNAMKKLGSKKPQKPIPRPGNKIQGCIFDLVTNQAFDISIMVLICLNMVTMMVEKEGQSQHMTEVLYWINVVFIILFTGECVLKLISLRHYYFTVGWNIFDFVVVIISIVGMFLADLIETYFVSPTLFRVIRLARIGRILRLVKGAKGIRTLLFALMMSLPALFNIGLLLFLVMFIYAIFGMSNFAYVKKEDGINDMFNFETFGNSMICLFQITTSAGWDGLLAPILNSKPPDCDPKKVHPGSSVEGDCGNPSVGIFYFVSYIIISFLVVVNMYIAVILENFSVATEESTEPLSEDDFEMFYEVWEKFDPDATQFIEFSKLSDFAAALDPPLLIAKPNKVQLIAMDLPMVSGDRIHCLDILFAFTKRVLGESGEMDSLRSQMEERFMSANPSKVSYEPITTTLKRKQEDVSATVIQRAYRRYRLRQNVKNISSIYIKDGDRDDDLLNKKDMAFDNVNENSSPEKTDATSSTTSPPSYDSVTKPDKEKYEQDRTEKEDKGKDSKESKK

Compound | in vivo efficacy: % MPE [1] | inhibition at 10 µM (human Nav1.7 channels) [%]
O=C(NCc1cccc[n+]1[O-])c1cccc(-c2ccc(Cl)cc2)c1 [Example 2, 3-(4-chlorophenyl)-N-[(1-oxidopyridin-1-ium-2-yl)methyl]benzamide] | +++ (+++: 70-100%) | 70 to 100
O=C(NCc1cccc[n+]1[O-])c1cccc(-c2ccc(OC(F)(F)F)cc2)c1 [Example 3, N-[(1-oxidopyridin-1-ium-2-yl)methyl]-3-[4-(trifluoromethoxy)phenyl]benzamide] | ++ (++: 40-70%,) | 70 to 100
Cc1ccc(-c2cccc(C(=O)NCc3cccc[n+]3[O-])c2)cc1 [Example 14, N-[(1-oxidopyridin-1-ium-2-yl)methyl]-3-(p-tolyl)benzamide] | ++ (++: 40-70%,) | 40 to 70
O=C(NCc1cccc[n+]1[O-])c1cccc(-c2ccc(F)c(F)c2)c1 [Example 19, 3-(3,4-difluorophenyl)-N-[(1-oxidopyridin-1-ium-2-yl)methyl]benzamide] | ++ (++: 40-70%,) | 40 to 70
Cc1cc(-c2cccc(C(=O)NCc3cccc[n+]3[O-])c2)ccc1F [Example 22, 3-(4-fluoro-3-methyl-phenyl)-N-[(1-oxidopyridin-1-ium-2-yl)methyl]benzamide] | + (+: 10-40%,) | 40 to 70
O=C(NCc1cccc[n+]1[O-])c1cc(-c2ccc(Cl)cc2)ccc1F [Example 51, 5-(4-chlorophenyl)-2-fluoro-N-[(1-oxidopyridin-1-ium-2-yl)methyl]benzamide] | +++ (+++: 70-100%) | 70 to 100
